Data: patent publication EP4005558A1, “ANTICANCER AGENT AND METHOD FOR PREPARATION OF POROUS SILICA PARTICLE” (Lemonex Inc., priority 2019, dated 2022)

How the values were obtained:
[1] = test system: MCF-7 cells expressing LC3-GFP; experiment: Number of GFP-LC3 puncta (autophagy induction); assay type: cell-based; conditions: MCF-7 expressing LC3-GFP, treated 6 hours in serum-free medium
Method: Using lipofectamine 2000, LC3-GFP plasmid was transfected into MCF-7 cells. Transfected MCF-7 was selected with 800 µg/mL of G418 for 3 months. […] 100,000 MCF-7 cells expressing LC3-GFP were seeded.
40 µg of dye-labeled particles and 4 µg of bec1 peptide were mixed, and the cells were treated for 6 hours in a serum-free medium. Cells were fixed with 4% PFA, and nuclei were stained with DAPI. Images were obtained with a Delta-vision microscope, and the number of GFP-LC3 puncta was measured in 100 cells for each group.
LC3 protein is a biomarker involved in the elongation process of autophagosome, and its expression level is known to increase with the progress of autophagosome.

MCF-7 cells = experiment: Cytotoxicity, MTT assay; assay type: cell-based; conditions: treatment for 1 day, compared to the non-treated group
Method: MCF-7 cells were seeded at 10,000 cells/well in 96-well cell culture plates. After 1 day, different concentrations of each particle (4 to 500 µg/mL) were treated with a serum-containing medium in each well for 1 day. Thereafter, the culture was performed for 4 hours while replacing the above medium with a serum-free medium containing 10 µl of MTT assay kit, and the supernatant was aspirated. DMSO was added to each well to dissolve formazan, and reacted for 1 hour. The absorbance was measured at a wavelength of 570 nm, and the cell viability was calculated as a relative value to that of the untreated group.
Cell viability was compared by MTT assay after treatment with FabBALL and Becl peptide carrying Becl peptide on MCF-7 cells.

CGGTNVFNATFHIWHSGQFGT [Becl peptide]
GFP puncta [1]: very little amount
cell viability (MCF-7 cells): not significantly varied
